The text below walks through data of US20260345654A1, “2,8-DIHYDROXYQUINOLINE GLUCURONIDE DERIVATIVES WITH ENHANCED PROPERTIES FOR USE AS ANTICANCER, ANTIVIRAL, ANTIMICROBIAL, AND OTHER THERAPEUTIC APPLICATIONS” (priority 2023, published 2026).

The data set deals with basal cell carcinoma. Description: Single patient clinical study, topical W1469, basal cell carcinoma. It counts as in vivo, human. The text has this: • Indication: Basil Cell Carcinoma • Rationale: Basil Cell Carcinoma is the most common form of skin cancer with 3.6 Million cases diagnosed each year and rising. It is estimated that 80% of all newly diagnosed skin cancers are BCC. Although rarely fatal, it can be painful and disfiguring and, in some cases, become dangerously invasive. The most common forms of treatment include surgery, radiation treatment, immunotherapy, systemic and topical chemotherapy, and other variations including laser therapy. The currently approved topical treatments for BCC are usually only recommended for more superficial tumors and more extensive monitoring is required because they are generally not effective in destroying cancer cell deeper below the surface. A more complete description of treatment options and their relative effectiveness has been described by the American Cancer Society. […] And if necessary, on a continuing ongoing basis.
The examined treatment approach studied here falls in the category of a topical chemotherapeutic. W1469 is a novel small molecule anti-cancer drug candidate which contains a tumor targeting functional group and has been shown effective against a variety of cancers in vitro. (most recently including squamous cell carcinoma)
Topical gel containing 0.5 mg/ml W1469 in proprietary aqueous alcohol gel, applied initially once daily using a suitable topical applicator.
In general, the Treatment/Patient protocol used for the patient testing was as follows: • 1. Photograph the application site prior to starting the protocol. Note any changes in lesion size, color, etc. of treatment area. • 2. Remove a loaded syringe from the freezer, dry ice or refrigerator and allow to gradually warm to room temperature. • 3. Photograph the syringe each time prior to application. Note the color of the gel contained in the syringe. • 4. Lightly clean the skin surface with alcohol wipe. • 5. […] Let the liquid from the gel absorb into the site without disturbing. Apply once a day at the same time. • 6. Re-cap the syringe and store in the refrigerator until completely used. • 7. Repeat 1-6 each daily during application period. It is noted in this protocol that photographing the syringe used with each application period accomplishes two things.
• 1. Toleration/toxicity • 2. Application methodology • 3. Any visual indications of efficacy • 4. Patient feedback Study Duration: Varied case by case. Generally, two weeks to two months
A person with extensive basil cell carcinoma lesions on both sides of the face, forehead and ear. Note: the clinical study involving Individual 1, due to limitations in available material, at the time was performed with very low concentrations of W1469 and the patient was instructed to use only on the nose area and under the area of the left cheek. The treatment was thus self-administered. A photo of the individual before treatment is included in FIG. 23. Patient condition was monitored and photographed regularly during the treatment period.
Self-administered, variable treatment protocol, drug concentrations and vehicle carrier. […] The lesion was tender to palpation especially to the center and the area around the lesion was with hyperpigmentation. […] No necrotic or hyperkeratotic areas were noted. […] Therapy was reintroduced on a three times-daily dosing schedule and with ethanol-based carrier molecule. […] The centralized portion of the lesion slowly healed over the next 5-day period. Continued healing of the centralized portion of the lesion during the 5-day period status post central necrotic tissue extrusion was shown. During this period the lesion began to flatten, the area became pain free, and localized tissue became less erythematic. A bloody clot in central area resolved and crater size decreased.

Where [1] appears, read: Individual 1, three week period, topical.
Where [2] appears, read: Individual 2, after first week of treatment.

SMILES strings stand for the structures.

`O=C(O)[C@H]1O[C@@H](Oc2ccc3cccc(O)c3n2)[C@H](O)[C@@H](O)[C@@H]1O` [G2-8HQ, 8-Hydroxy-2-quinolinyl beta-D-glucopyranosiduronic acid]: under setting [1], the “patient's condition” value is on record as “significant amelioration of the patient's condition” and the “scarring or other disfigurement” value is listed as “did not result in scarring or other disfigurement”. For the setting “Individual 2, after 7 days of treatment (FIG. 26)”, the “patient's condition” value is “significant amelioration of the patient's condition”. Further, under setting [2], the hyperpigmentation result is “hyperpigmentation is markedly reduced”, the lesion response result is recorded as “marked improvement in the lesion was obtained with almost complete resolution” and the pain result is given as “Area is pain free”. Also, the recurrence result (Individual 2, one month following the treatment) is “another lesion returned to the patient's right cheek”. In addition, the lesion hyperkeratosis entry (Individual 2, second lesion) was “marked reduction in lesion hyperkeratosis”. Also, the centralized necrotic core result (Individual 2, second lesion, after two days) is on record as “the centralized necrotic core came out of the lesion”. The lesion size result (Individual 2, second lesion, three times daily, ethanol-based carrier) is “lesion size markedly decreased”.
